These results are taken from PMC4311242 (2015).

Each structure is given as a SMILES string.

Experiment [1] has as its system Mut2 (DNA, aptamer) TGGAAATTGAGGCTAAGCCGA
In words: TO fluorescent intercalator displacement. The following applies: 10 mM NaCl; 10 mM Tris-HCl pH 7.2, 25 °C; TO displaced; affinity comparable to parent aptamer.

The test system of experiment [2] is kanamycin-binding DNA aptamer (DNA, aptamer) TGGGGGTTGAGGCTAAGCCGA
Kind of experiment: TO fluorescent intercalator displacement. The following applies: 10 mM NaCl, 10 mM Tris-HCl pH 7.2, 25 °C.

Experiment [3] has the same test system. Kind of experiment: fluorescence enhancement. The following applies: 10 mM NaCl; 10 mM Tris-HCl pH 7.2, 25 °C; excitation 501 nm, emission 530 nm.
In experiment [4] the test system is Mut1 (DNA, aptamer) TGGGGGTTGAAACTAAGCCGA
In words: fluorescence enhancement. The following applies: 10 mM NaCl; 10 mM Tris-HCl pH 7.2, 25 °C; excitation 501 nm, emission 530 nm.

[5] abbreviates: TO tracer 3.5:1 to DNA, tested at 20 µM.

On to `NC[C@H]1O[C@H](O[C@H]2[C@H](O)[C@@H](O[C@H]3O[C@H](CO)[C@@H](O)[C@H](N)[C@H]3O)[C@H](N)C[C@@H]2N)[C@H](O)[C@@H](O)[C@@H]1O`, for which the binding result is on record as “yes” in experiment [1] and “yes” in experiment [2] (TO displaced, kanamycin 0.1-100 µM). Turning to `CN(C)[C@@H]1C(O)=C(C(N)=O)C(=O)[C@@]2(O)C(O)=C3C(=O)c4c(O)ccc(Cl)c4[C@@](C)(O)[C@H]3C[C@@H]12`, in experiment [2] (setting [5]), the binding result is given as “no”. In the case of `O=C(N[C@H](CO)[C@H](O)c1ccc([N+](=O)[O-])cc1)C(Cl)Cl`, in experiment [2] (setting [5]), the binding entry is recorded as “no”. Consider `CN1C(=Cc2cc[n+](C)c3ccccc23)Sc2ccccc21`, for which the binding result is reported as “yes” in experiment [3] and “weak” in experiment [4]. In the case of `COc1cc(NS(=O)(=O)c2ccc(N)cc2)nc(OC)n1`, the binding result in experiment [2] (setting [5]) is “no”. Still for that read-out and setting: in the case of `CN[C@@H]1[C@H](O[C@H]2[C@H](O[C@H]3[C@H](O)[C@@H](O)[C@H](N=C(N)N)[C@@H](O)[C@@H]3N=C(N)N)O[C@@H](C)[C@]2(O)C=O)O[C@@H](CO)[C@H](O)[C@H]1O` it was “no”.

`CN(C)[C@@H]1C(=O)C(C(N)=O)=C(O)[C@@]2(O)C(=O)C3=C(O)c4c(O)cccc4[C@@](C)(O)[C@H]3[C@H](O)[C@@H]12`: the binding result in experiment [2] (setting [5]) is listed as “no”. As to `CC1(C)S[C@@H]2[C@H](NC(=O)[C@H](N)c3ccccc3)C(=O)N2[C@H]1C(=O)O`, the binding result in experiment [2] (setting [5]) is given as “no”.
